Measurements as given in the NIST ThermoML archive (doi:10.1021/je060355j).

Assays:
[1] = excess molar enthalpy (molar enthalpy of mixing); xn = mol fraction of the nth substance listed; settings: 101.32 kPa, Liquid
[2] = xn = mol fraction of the nth substance listed; settings: 101.32 kPa, Liquid

CCOC=O [ethyl methanoate] + CCCCCC
Settings | excess molar enthalpy [kcal/mol] | mass density [kg/m3]
[1], 291.15 K, x1 = 0.092 | 0.107 | –
[1], 291.15 K, x1 = 0.209 | 0.228 | –
[1], 291.15 K, x1 = 0.3175 | 0.305 | –
[1], 291.15 K, x1 = 0.4075 | 0.346 | –
[1], 291.15 K, x1 = 0.4677 | 0.364 | –
[1], 291.15 K, x1 = 0.5161 | 0.368 | –
[1], 291.15 K, x1 = 0.5681 | 0.365 | –
[1], 291.15 K, x1 = 0.6185 | 0.344 | –
[1], 291.15 K, x1 = 0.6714 | 0.319 | –
[1], 291.15 K, x1 = 0.7272 | 0.286 | –
[1], 291.15 K, x1 = 0.7841 | 0.243 | –
[1], 291.15 K, x1 = 0.843 | 0.188 | –
[1], 291.15 K, x1 = 0.9022 | 0.127 | –
[1], 291.15 K, x1 = 0.9514 | 0.0729 | –
[1], 318.15 K, x1 = 0.1003 | 0.149 | –
[1], 318.15 K, x1 = 0.1895 | 0.244 | –
[1], 318.15 K, x1 = 0.2842 | 0.323 | –
[1], 318.15 K, x1 = 0.3713 | 0.367 | –
[1], 318.15 K, x1 = 0.4495 | 0.389 | –
[1], 318.15 K, x1 = 0.5137 | 0.394 | –
[1], 318.15 K, x1 = 0.5599 | 0.387 | –
[1], 318.15 K, x1 = 0.5991 | 0.374 | –
[1], 318.15 K, x1 = 0.6795 | 0.337 | –
[1], 318.15 K, x1 = 0.7593 | 0.281 | –
[1], 318.15 K, x1 = 0.8299 | 0.216 | –
[1], 318.15 K, x1 = 0.8814 | 0.155 | –
[1], 318.15 K, x1 = 0.9215 | 0.105 | –
[1], 318.15 K, x1 = 0.966 | 0.051 | –
[2], 291.15 K, x1 = 0.0495 | – | 667.8
[2], 291.15 K, x1 = 0.1025 | – | 675.4
[2], 291.15 K, x1 = 0.1497 | – | 682.8
[2], 291.15 K, x1 = 0.2049 | – | 692.1
[2], 291.15 K, x1 = 0.2531 | – | 700.4
[2], 291.15 K, x1 = 0.3068 | – | 710.6
[2], 291.15 K, x1 = 0.3937 | – | 728.2
[2], 291.15 K, x1 = 0.5016 | – | 753
[2], 291.15 K, x1 = 0.6039 | – | 780
[2], 291.15 K, x1 = 0.6996 | – | 808.2
[2], 291.15 K, x1 = 0.7504 | – | 824.6
[2], 291.15 K, x1 = 0.8029 | – | 842.4
[2], 291.15 K, x1 = 0.9016 | – | 880.3
[2], 291.15 K, x1 = 0.9065 | – | 882.4
[2], 291.15 K, x1 = 0.9522 | – | 901.9
[2], 291.15 K, x1 = 0.958 | – | 905
[2], 291.15 K, x1 = 1 | – | 924.7
[2], 298.15 K, x1 = 0.0777 | – | 665.63
[2], 298.15 K, x1 = 0.1291 | – | 673.25
[2], 298.15 K, x1 = 0.1715 | – | 679.95
[2], 298.15 K, x1 = 0.2501 | – | 693.44
[2], 298.15 K, x1 = 0.327 | – | 707.73
[2], 298.15 K, x1 = 0.4765 | – | 739.84
[2], 298.15 K, x1 = 0.5354 | – | 754.13
[2], 298.15 K, x1 = 0.5955 | – | 769.95
[2], 298.15 K, x1 = 0.6441 | – | 783.83
[2], 298.15 K, x1 = 0.6993 | – | 800.39
[2], 298.15 K, x1 = 0.7956 | – | 832.38
[2], 298.15 K, x1 = 0.884 | – | 865.42
[2], 298.15 K, x1 = 0.9643 | – | 898.98
[2], 298.15 K, x1 = 1 | – | 915.16
[2], 308.15 K, x1 = 0.0485 | – | 651.9
[2], 308.15 K, x1 = 0.1103 | – | 660.5
[2], 308.15 K, x1 = 0.1539 | – | 667.2
[2], 308.15 K, x1 = 0.2548 | – | 683.8
[2], 308.15 K, x1 = 0.3998 | – | 711.6
[2], 308.15 K, x1 = 0.4915 | – | 731.9
[2], 308.15 K, x1 = 0.5935 | – | 757.8
[2], 308.15 K, x1 = 0.6998 | – | 788
[2], 308.15 K, x1 = 0.7971 | – | 819.9
[2], 308.15 K, x1 = 0.9063 | – | 860.7
[2], 308.15 K, x1 = 0.9488 | – | 878.7
[2], 308.15 K, x1 = 1 | – | 902.07
[2], 318.15 K, x1 = 0.0476 | – | 642.18
[2], 318.15 K, x1 = 0.0875 | – | 647.84
[2], 318.15 K, x1 = 0.1044 | – | 649.54
[2], 318.15 K, x1 = 0.1471 | – | 655.88
[2], 318.15 K, x1 = 0.2199 | – | 667.46
[2], 318.15 K, x1 = 0.3041 | – | 681.93
[2], 318.15 K, x1 = 0.4061 | – | 701.97
[2], 318.15 K, x1 = 0.5293 | – | 729.7
[2], 318.15 K, x1 = 0.5869 | – | 744.1
[2], 318.15 K, x1 = 0.6984 | – | 775.52
[2], 318.15 K, x1 = 0.7476 | – | 790.78
[2], 318.15 K, x1 = 0.7932 | – | 805.56
[2], 318.15 K, x1 = 0.8873 | – | 840.19
[2], 318.15 K, x1 = 0.9692 | – | 874.21
[2], 318.15 K, x1 = 1 | – | 888.42
